Structures can show the parent of a compound that is named as a salt.
target: T1, human LPA1 (Homo sapiens, UniProt Q92633); assay: LPA1 functional antagonist assay (LPA-induced calcium flux in CHO cells overexpressing human LPA1); assay type: cell-based; settings: inhibition of calcium flux induced by 10 nM LPA, CHO cells overexpressing human LPA1; read-out: hLPA1 IC50
T1 construct: expressed in transfected cells; host or cells: Chinese hamster ovary (CHO) cells
Experimental: The effectiveness of compounds of the present invention as LPA1 inhibitors can be determined in an LPA1 functional antagonist assay as follows:
Chinese hamster ovary cells overexpressing human LPA1 were plated overnight (15,000 cells/well) in poly-D-lysine coated 384-well microplates (Greiner bio-one, Cat #781946) in DMEM/F12 medium (Gibco, Cat #11039). Following overnight culture, cells were loaded with calcium indicator dye (AAT Bioquest Inc, Cat #34601) for 30 minutes at 37° C. The cells were then equilibrated to room temperature for 30 minutes before the assay. Test compounds solubilized in DMSO were transferred to 384 well non-binding surface plates (Corning, Cat #3575) using the Labcyte Echo acoustic dispense and diluted with assay buffer [IX HBSS with calcium/magnesium (Gibco Cat #14025-092), 20 mM HEPES (Gibco Cat #15630-080) and 0.1% fatty acid free BSA (Sigma Cat #A9205)] to a final concentration of 0.5% DMSO. Diluted compounds were added to the cells by FDSS6000 (Hamamatsu) at final concentrations ranging from 0.08 nM to 5 μM. and were then incubated for 20 min at room temperature at which time LPA (Avanti Polar Lipids Cat #857130C) was added at final concentrations of 10 nM to stimulate the cells. The compound IC50 value was defined as the concentration of test compound which inhibited 50% of the calcium flux induced by LPA alone. IC50 values were determined by fitting data to a 4-parameter logistic equation (GraphPad Prism, San Diego Calif.).

T1 sequence (Q92633 whole entry): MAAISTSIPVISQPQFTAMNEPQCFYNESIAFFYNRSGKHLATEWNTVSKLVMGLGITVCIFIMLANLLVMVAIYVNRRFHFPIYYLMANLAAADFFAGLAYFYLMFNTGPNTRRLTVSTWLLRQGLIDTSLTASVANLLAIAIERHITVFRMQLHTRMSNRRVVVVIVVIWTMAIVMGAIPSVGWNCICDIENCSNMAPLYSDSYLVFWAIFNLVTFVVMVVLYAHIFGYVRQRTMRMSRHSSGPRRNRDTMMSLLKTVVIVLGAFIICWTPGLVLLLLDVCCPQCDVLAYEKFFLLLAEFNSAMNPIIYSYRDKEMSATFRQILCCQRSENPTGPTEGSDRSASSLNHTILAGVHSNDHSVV

How did the IC50 turn out when `Cc1nc(-c2nnn(C)c2Cc2noc(-c3ccccc3)n2)ccc1O[C@H]1CCC[C@H](C(=O)O)C1` [Example 238, (1S,3S)-3-((2-methyl-6-(1-methyl-5-((5-phenyl-1,2,4-oxadiazol-3-yl)methyl)-1H-1,2,3-triazol-4-yl)pyridin-3-yl)oxy)cyclohexane-1-carboxylic acid] was run?
Its IC50 is 161 nM.

How did the IC50 turn out when `CCCC(C)c1nc(NCc2c(-c3ccc(O[C@H]4CCC[C@H](C(=O)O)C4)c(C)n3)nnn2C)no1` (stereo partly shown) [Example 171] was run?
Its IC50 is 12 nM.

`CCCc1nnn(Cc2c(-c3ccc(O[C@H]4CCC[C@H](C(=O)O)C4)c(C)n3)nnn2C)n1` [Example 113] was tested. Which IC50 did it give?
Its IC50 is 30 nM.

For `Cc1nc(-c2nnn(C)c2CNc2noc(C3CC(C)C3)n2)ccc1O[C@H]1CCC[C@H](C(=O)O)C1` (stereo partly shown) [Example 199], which IC50 is on record?
The IC50 was 33 nM.

With `Cc1nc(-c2nnn(C)c2Cn2ncc(-c3ccccc3)n2)ccc1O[C@H]1CCC[C@H](C(=O)O)C1` [Example 273, (1 S,3S)-3-((2-methyl-6-(1-methyl-5-((4-phenyl-2H-1,2,3-triazol-2-yl)methyl)-1H-1,2,3-triazol-4-yl)pyridin-3-yl)oxy)cyclohexane-1-carboxylic acid] as the compound, how does the IC50 read?
The IC50 was 57 nM.

With `Cc1nc(-c2nnn(C)c2CNc2ncc(-c3ccccc3)s2)ccc1O[C@H]1CCC[C@H](C(=O)O)C1` [Example 16] as the compound, how does the IC50 read?
Its IC50 is 67 nM.

For `Cc1nc(-c2nnn(C)c2CNc2nc3c(s2)CCCC3)ccc1O[C@H]1CCC[C@H](C(=O)O)C1` [Example 17], which IC50 is on record?
Its IC50 is 1200 nM.

For `Cc1nc(-c2nnn(C)c2Cn2cc(C(O)c3ccccc3)nn2)ccc1O[C@H]1CCC[C@H](C(=O)O)C1` (stereo partly shown) [Example 87], which IC50 is on record?
The IC50 was 363 nM.

With `CCCc1nnnn1Cc1c(-c2ccc(O[C@H]3CCC[C@H](C(=O)O)C3)c(C)n2)nnn1C` [Example 114] as the compound, how does the IC50 read?
Its IC50 is 125 nM.

How did the IC50 turn out when `CCCc1cnn(Cc2c(-c3ccc(O[C@H]4CCC[C@H](C(=O)O)C4)c(C)n3)nnn2C)n1` [Example 270, (1S,3S)-3-((2-methyl-6-(1-methyl-5-((4-propyl-2H-1,2,3-triazol-2-yl)methyl)-1H-1,2,3-triazol-4-yl)pyridin-3-yl)oxy)cyclohexane-1-carboxylic acid] was run?
Its IC50 is 61 nM.

For `Cc1nc(-c2nnn(C)c2Cn2cc(C3(O)CCCCC3)nn2)ccc1O[C@H]1CCC[C@H](C(=O)O)C1` [Example 89], which IC50 is on record?
Its IC50 is 3270 nM.

`CCOCCc1nc(NCc2c(-c3ccc(O[C@H]4CCC[C@H](C(=O)O)C4)c(C)n3)nnn2C)no1` [Example 213, (1S,3S)-3-((6-(5-(((5-(2-ethoxy-ethyl)-1,2,4-oxadiazol-3-yl)amino)methyl)-1-methyl-1H-1,2,3-triazol-4-yl)-2-methylpyridin-3-yl)oxy)cyclohexane-1-carboxylic acid] was tested. Which IC50 did it give?
Its IC50 is 98 nM.

`Cc1nc(-c2nnn(C)c2CNc2noc(C3CC34CC4)n2)ccc1O[C@H]1CCC[C@H](C(=O)O)C1` (stereo partly shown) [Example 205] was tested. Which IC50 did it give?
Its IC50 is 24 nM.

`Cc1nc(-c2nnn(C)c2Cn2nnnc2CC2CC2)ccc1O[C@H]1CCC[C@H](C(=O)O)C1` [Example 106, (1S,3S)-3-((6-(5-((5-(cyclopropylmethyl)-1H-tetrazol-1-yl)methyl)-1-methyl-1H-1,2,3-triazol-4-yl)-2-methylpyridin-3-yl)oxy)cyclohexane-1-carboxylic acid] was tested. Which IC50 did it give?
Its IC50 is 147 nM.

Which IC50 does the source give for `Cc1nc(-c2nnn(C)c2Cc2nc(COC(C)C)no2)ccc1O[C@H]1CCC[C@H](C(=O)O)C1` [Example 248, (1S,3S)-3-((6-(5-((3-(isopropoxy-methyl)-1,2,4-oxadiazol-5-yl)methyl)-1-methyl-1H-1,2,3-triazol-4-yl)-2-methylpyridin-3-yl)oxy)cyclohexane-1-carboxylic acid] here?
The IC50 was 61 nM.

With `Cc1nc(-c2nnn(C)c2Cc2noc(Cc3ccccc3)n2)ccc1O[C@H]1CCC[C@H](C(=O)O)C1` [Example 237, (1S,3S)-3-((6-(5-((5-benzyl-1,2,4-oxadiazol-3-yl)methyl)-1-methyl-1H-1,2,3-triazol-4-yl)-2-methylpyridin-3-yl)oxy)cyclohexane-1-carboxylic acid] as the compound, how does the IC50 read?
Its IC50 is 8 nM.

For `Cc1nc(-c2nnn(C)c2CNc2noc(COC3CCC3)n2)ccc1O[C@H]1CCC[C@H](C(=O)O)C1` [Example 283, (1S,3S)-3-((6-(5-(((5-(cyclobutoxymethyl)-1,2,4-oxadiazol-3-yl)amino)methyl)-1-methyl-1H-1,2,3-triazol-4-yl)-2-methylpyridin-3-yl)oxy)cyclo-hexane-1-carboxylic acid, TFA salt], which IC50 is on record?
The IC50 was 19 nM.

For `Cc1nc(-c2nnn(C)c2CNc2nc(-c3ccccc3)ns2)ccc1O[C@H]1CCC[C@H](C(=O)O)C1` [Example 9], which IC50 is on record?
The IC50 was 38 nM.

For `COc1nc(NCc2c(-c3ccc(O[C@H]4CCC[C@H](C(=O)O)C4)c(C)n3)nnn2C)ns1` [Example 4], which IC50 is on record?
Its IC50 is 1120 nM.

`Cc1nc(-c2nnn(C)c2CNc2noc(CCCC(F)(F)F)n2)ccc1O[C@H]1CCC[C@H](C(=O)O)C1` [Example 177] was tested. Which IC50 did it give?
The IC50 was 9.1 nM.

`Cc1nc(-c2nnn(C)c2Cn2sc(C3CC3)nc2=N)ccc1O[C@H]1CCC[C@H](C(=O)O)C1` [Example 274, (1 S,3 S)-3-((6-(5-((5-cyclopropyl-3-imino-1,2,4-thiadiazol-2(3H)-yl)methyl)-1-methyl-1H-1,2,3-triazol-4-yl)-2-methylpyridin-3-yl)oxy)cyclohexane-1-carboxylic acid] was tested. Which IC50 did it give?
The IC50 was 1000 nM.

With `Cc1nc(-c2nnn(C)c2Cc2nnc(Cc3ccccc3)o2)ccc1O[C@H]1CCC[C@H](C(=O)O)C1` [Example 73, (1 S,3 S)-3-((6-(5-((5-benzyl-1,3,4-oxadiazol-2-yl)methyl)-1-methyl-1H-1,2,3-triazol-4-yl)-2-methylpyridin-3-yl)oxy)cyclohexane-1-carboxylic acid] as the compound, how does the IC50 read?
The IC50 was 55 nM.

Which IC50 does the source give for `Cc1nc(-c2nnn(C)c2Cc2noc(CC3CCC3)n2)ccc1O[C@H]1CCC[C@H](C(=O)O)C1` [Example 236, (1S,3S)-3-((6-(5-((5-(cyclobutyl-methyl)-1,2,4-oxadiazol-3-yl)methyl)-1-methyl-1H-1,2,3-triazol-4-yl)-2-methylpyridin-3-yl)oxy)cyclohexane-1-carboxylic acid] here?
Its IC50 is 28 nM.

`CC(C)CCc1nc(NCc2c(-c3ccc(O[C@H]4CCC[C@H](C(=O)O)C4)cn3)nnn2C)no1` [Example 285, (1 S,3 S)-3-((6-(5-(((5-isopentyl-1,2,4-oxadiazol-3-yl)amino)methyl)-1-methyl-1H-1,2,3-triazol-4-yl)pyridin-3-yl)oxy)cyclohexane-1-carboxylic acid] was tested. Which IC50 did it give?
Its IC50 is 93 nM.

same assay, conditions: read-out: hLPA1 IC50

With `Cc1nc(-c2nnn(C)c2Cn2nnc(NCC3CC3)n2)ccc1O[C@H]1CCC[C@H](C(=O)O)C1` [Example 359, (1S,3S)-3-((6-(5-((5-((cyclopropylmethyl)amino)-2H-tetrazol-2-yl)methyl)-1-methyl-1H-1,2,3-triazol-4-yl)-2-methylpyridin-3-yl)oxy)cyclohexane-1-carboxylic acid] as the compound, how does the IC50 read?
Its IC50 is 428 nM.

For `COC[C@@H](C)Oc1nnn(Cc2c(-c3ccc(O[C@H]4CCC[C@H](C(=O)O)C4)c(C)n3)nnn2C)n1` [Example 403, (1S,3S)-3-[(6-{5-[(5-{[(2R)-1-methoxypropan-2-yl]oxyl}-2H-1,2,3,4-tetrazol-2-yl)methyl]-1-methyl-1H-1,2,3-triazol-4-yl}-2-methylpyridin-3-yl)oxy]cyclo-hexane-1-carboxylic acid], which IC50 is on record?
The IC50 was 250 nM.

Which IC50 does the source give for `Cc1nc(-c2nnn(C)c2Cc2nnnn2CC(C)C)ccc1O[C@H]1CCC[C@H](C(=O)O)C1` [Example 374, (1S,3S)-3-((6-(5-((1-isobutyl-1H-tetrazol-5-yl)methyl)-1-methyl-1H-1,2,3-triazol-4-yl)-2-methylpyridin-3-yl)oxy)cyclohexane-1-carboxylic acid] here?
The IC50 was 207 nM.

`Cc1cccc(-n2nnc(NCc3c(-c4ccc(O[C@H]5CCC[C@H](C(=O)O)C5)c(C)n4)nnn3C)n2)c1` [Example 380, (1S,3S)-3-((2-methyl-6-(1-methyl-5-(((2-(m-tolyl)-2H-tetrazol-5-yl)amino)methyl)-1H-1,2,3-triazol-4-yl)pyridin-3-yl)oxy)cyclohexane-1-carboxylic acid] was tested. Which IC50 did it give?
The IC50 was 183 nM.

How did the IC50 turn out when `Cc1nc(-c2nnn(C)c2CNc2nnn(CC3CC3)n2)ccc1O[C@H]1CCC[C@H](C(=O)O)C1` [Example 386, (1S,3S)-3-((6-(5-(((2-(cyclopropyl-methyl)-2H-tetrazol-5-yl)amino)methyl)-1-methyl-1H-1,2,3-triazol-4-yl)-2-methylpyridin-3-yl)oxy)cyclohexane-1-carboxylic acid] was run?
Its IC50 is 26 nM.

With `Cc1ccc(-n2nnc(NCc3c(-c4ccc(O[C@H]5CCC[C@H](C(=O)O)C5)c(C)n4)nnn3C)n2)cc1` [Example 385, (1S,3S)-3-((2-methyl-6-(1-methyl-5-(((2-(p-tolyl)-2H-tetrazol-5-yl)amino)methyl)-1H-1,2,3-triazol-4-yl)pyridin-3-yl)oxy)cyclohexane-1-carboxylic acid] as the compound, how does the IC50 read?
The IC50 was 158 nM.

For `CCCCN(C)c1nnn(Cc2c(-c3ccc(O[C@H]4CCC[C@H](C(=O)O)C4)c(C)n3)nnn2C)n1` [Example 361, (1S,3S)-3-((6-(5-((5-(butyl(methyl)amino)-2H-tetrazol-2-yl)methyl)-1-methyl-1H-1,2,3-triazol-4-yl)-2-methylpyridin-3-yl)oxy)cyclo-hexane-1-carboxylic acid], which IC50 is on record?
Its IC50 is 228 nM.

Reference: patent US11319315B2, “Cyclohexyl acid triazole azoles as LPA antagonists” (BRISTOL-MYERS SQUIBB COMPANY, priority 2017, dated 2022)
